Assay results as given in US20030134901A1, “Lipoxin compounds and their use in treating cell proliferative disorders” (priority 1993, published 2003).

How the values were obtained:
[1] = molecular target: T1, LXA4 specific binding sites of differentiated HL-60 cells (Homo sapiens, UniProt P25090); assay: 3H-LXA4 specific binding to differentiated HL-60 cells
T1 construct: endogenous in cells; host or cells: HL-60 cells differentiated with DMSO, retinoic acid or PMA; intact cells
T1 sequence (P25090 1-351): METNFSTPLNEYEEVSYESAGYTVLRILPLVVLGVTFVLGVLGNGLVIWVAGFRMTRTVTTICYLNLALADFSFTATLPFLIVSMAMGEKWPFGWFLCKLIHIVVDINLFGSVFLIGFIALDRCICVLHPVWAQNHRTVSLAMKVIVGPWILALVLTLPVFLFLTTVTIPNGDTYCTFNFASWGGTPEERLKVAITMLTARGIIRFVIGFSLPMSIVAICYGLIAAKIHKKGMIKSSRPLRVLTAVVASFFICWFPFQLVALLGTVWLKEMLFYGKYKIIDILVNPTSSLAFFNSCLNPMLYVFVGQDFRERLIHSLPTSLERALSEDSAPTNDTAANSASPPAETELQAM
Experimental: Preparation of [11,12-^3H]LXA4. Tritiation of 11,12-acetylenic LXA4 methyl ester was carried out under a custom tritiation service (NET-259:92-2326) by New England Nuclear (Boston, Mass.). Briefly, 11,12-acetylene methyl ester was characterized by UV absorbance and reverse-phase HPLC as in (Nicolaou, K. C. et al. (1985) J. Am. Chem. Soc. 107:7515) and exposed to tritium atmosphere in methylene chloride at room temperature. This incubation was stirred in the presence of Lindlar catalyst (1.0 mg from Fluka Chemicals) for˜1 h. The resulting mixture was stored in methanol and isolated using RP-HPLC. Tritiated products were chromatographed as methyl esters utilizing a gradient HPLC system equipped with a photodiode array rapid spectral detector (Serhan, C. N., Methods in Enzymology: Arachidonate Related Lipid Mediators, in Murphy R. C., Fitzpatrick, F. (eds.), vol. 187. Orlando, Fla., Academic, (1990), p. 167). This mixture contained both [11,12-^3H]LXA4 and [11,12-^3H]-11-trans-LXA4 methyl esters (˜1:3 ratio) as determined by coelution with synthetic standards. After RP-HPLC, fractions containing [11,12-^3H]LXA4 were collected, and extracted into ethyl acetate. The free acid was prepared by LiOH saponification (Fiore, S. et al. (1992) J. Biol. Chem. 267:16168). Material from these fractions, when injected into UV-electrochemical detection HPLC, gave greater than 90% of radioactivity associated with a tetraene-containing product that coeluted with synthetic LXA4. Materials that eluted with the retention time of authentic LXA4 in two HPLC systems were taken for binding experiments. The specific activity calculated for [11,12-^3H]LXA4 was 40.5 Ci/mmole.
Cell cultures and differentiation. HL-60 cells were seeded in RPMI medium supplemented with 100 U/ml penicillin, 100 μg/ml streptomycin, and 10% fetal calf serum (Hyclone, Logan, Utah), incubated at 37° C. with 5% CO2 atmosphere in 250 ml flasks. Individual flasks containing ˜[…] next received dimethyl sulfoxide (DMSO) (1.12% v/v, 120 h) or retinoic acid (RA) (1 μM, 120 h) or phorbol myristate acetate (PMA) (20 nM, 48 h). Before performing binding assays, cells were washed twice in phosphate buffered saline (PBS), Ca^2+- and Mg^2+-free, enumerated and suspended at 20×10^6 cells/ml in Tris buffer (10 mM), pH 7.4 (Fiore, S. et al.(1992) J. Biol. Chem. 267:16168). Nitro blue tetrazolium reduction was performed to monitor induction of polymorphonuclear phenotype as in (Imaizumi, M. and Breitman, T. R. (1986) Blood 67:1273), and cell adherence was determined for induction of macrophage-like phenotype (Collins, S. J. (1987) Blood 70:1273). Human umbilical vein endothelial cells (HUVEC) maintained in culture third passage were obtained from Dr. M. Gimbrone (Brigham and Women's Hospital Department of Pathology).
Ligand binding. ^3H-LXA4 and ^3H-LTB4 binding was performed essentially as in Fiore, S. et al.(1992) J. Biol. Chem. 267:16168. After suspending cells in Tris buffer 10 mM (pH 7.4, Ca^2+ 2.5 mM, Mg^2+ 1.2 mM), aliquots (0.5 ml) were incubated (20 min at 4° C.) with ^3H- ligands alone (0.3 nM) or in the presence of increasing concentrations of homoligands or other compounds (3-300 nM). The incubations were rapidly centrifuged (60 sec, 12,000 g) on silicon oil (d=1.028), and cell-associated radioactivity was determined by liquid scintillation counting (Wallac 1409, Pharmacia, Piscataway, N.J.). Binding experiments with HUVEC cells were performed in 12 well plates with 3.5×10^5 cells/well. After 10 min, wells were washed twice with PBS and cell-associated label was recovered by adding glacial acetic acid (0.5 ml). Results obtained from these assays were submitted for further analysis using the Ligand program (Elsevier-Biosoft, Cambridge, UK).

[2] = test system: HUVEC (putative LTD4 receptors); assay: 3H-LXA4 specific binding to HUVEC; design: species or system human
Experimental: Cell cultures and differentiation. HL-60 cells were seeded in RPMI medium supplemented with 100 U/ml penicillin, 100 μg/ml streptomycin, and 10% fetal calf serum (Hyclone, Logan, Utah), incubated at 37° C. with 5% CO2 atmosphere in 250 ml flasks. […] Human umbilical vein endothelial cells (HUVEC) maintained in culture third passage were obtained from Dr. M. Gimbrone (Brigham and Women's Hospital Department of Pathology).
Binding experiments with HUVEC cells were performed in 12 well plates with 3.5×10^5 cells/well. After 10 min, wells were washed twice with PBS and cell-associated label was recovered by adding glacial acetic acid (0.5 ml). Results obtained from these assays were submitted for further analysis using the Ligand program (Elsevier-Biosoft, Cambridge, UK).

[3] = test system: A549 cells; assay: 15-HETE generation by IL-1β-treated A549 cells; format: cell-based, human; conditions: permeabilized IL-1β-treated A549 cells, arachidonic acid 20 μM
Experimental: FIG. 3 is a graph showing the relative chiralities of 15-HETE triggered by ASA. A549 cells (10^7 cells per flask) were exposed to IL-1β (1 ng/ml) for 24 h, treated with vehicle (0.1% vol/vol ethanol) (□) or ASA (▪) for 20 min and then incubated (30 min, 37° C.) in HBSS containing arachidonic acid (20 μM) and A23187 (5 μM). Products were chromatographed by RP-HPLC (as in FIG. 1B) and the region containing 15-HETE was collected, extracted with chloroform and treated with diazomethane. Chiral analysis was performed with a Bakerbond DNBPG (see Methods for details). Results are representative of two separate experiments showing similar results.
In incubations involving permeabilized A549 cells (prepared by a rapid freeze-thaw cycle), IL-1β-treated (1 ng/ml, 24 h) A549 cells (1.5×10^6 cells/ml) were pretreated for 20 min with either vehicle (0.1% EtOH), ASA (500 (M; used throughout), 5 (M 17-ODYA, an inhibitor of cytochrome P450, (Muerhoff A. S., et al. (1989) Prostaglandin and fatty acid ω and (ω-1)-oxidation in rabbit lung: acetylenic fatty acid mechanism-based inactivators as specific inhibitors. J Biol.Chem. 244: 749-756.), or […] Rev 5901 isomer, a 5-LO inhibitor, subjected to two cycles of rapid freezing in a dry ice-acetone bath and thawing to room temperature (full cycle <20 min), and incubated with arachidonic acid ([…] for 20 min at 37° C. in 4 ml of DPBS^2+. In experiments involving radiolabeled arachidonic acid, incubations were initiated with the addition of [^3H]-arachidonic acid (0.25 (Ci/ml) plus unlabeled arachidonic acid ([…] for 20 min at 37° C.
For time-course experiments involving the generation of 15-HETE from endogenous sources (see FIG. 2B), intact A549 cells were exposed to IL-1β (1 ng/ml) for up to 48 h and then treated with vehicle (containing 0.1% EtOH) or ASA for 20 min followed by addition of ionophore A23187 (5 μM) in 4 ml of HBSS for 30 min at 37° C.
The monohydroxy eicosanoids (i. e. 5-, 12- and 15-HETE) from A549 cells were analyzed using a Ultrasphere-ODS column (5 μm, 4.6 mm×25 cm) (Beckman Instruments, Fullerton, Calif.) was eluted with MeOH/H2O/acetic acid (65:35:0.01; v/v/v) as phase one (t0-20 min), and a linear gradient with MeOH/acetic acid (99.9:0.1, v/v) as phase two (20-45 min) at a flow rate of 1.0 ml/min. The R- and S-enantiomers of 15-HETE were resolved and identified using a chiral HPLC system similar to that reported by Hawkins et al. (1988). […] When indicated, generation of 15-HETE from endogenous sources was monitored by radioimmunoassay (RIA). […]

For `O=C(O)CCS[C@H](c1ccccc1CCCCCCCCc1ccccc1)[C@@H](O)C(=O)O` [SKF 104353], which “displacement of 3H-LXA4 specific binding” value ([1]; competition, competitor 300 nM where printed) is on record?
Its value is “did not displace”.

What about the “competition of specific 3H-LXA4 binding” value [2] of the same compound?
The value was “effective in competing”.

With `CCCCC/C=C\C\C=C/C=C/C=C/[C@@H](SC[C@H](N)C(=O)NCC(=O)O)[C@@H](O)CCCC(=O)O` [LTD4] as the compound, how does the “competition of specific 3H-LXA4 binding” value [2] read?
The value was “effective in competing”.

Which results are given for `[3H]C(/C=C/C=C/[C@@H](O)[C@@H](O)CCCC(=O)O)=C([3H])/C=C/[C@@H](O)CCCCC` [[11,12-^3H]LXA4]?
Kd ([1]; isotherm binding, 4° C., 10 min, 0.1-30 nM): 0.6 ± 0.3 nM; Kd [2]: 11 ± 2.6 nM

Which “reduction in 15-HETE” value [3] does the source give for `C#CCCCCCCCCCCCCCCCC(=O)O` [17-ODYA, 17-octadecaynoic acid] here?
The value was roughly 50%.
